Legend:
[1] = Therapeutic drug monitoring of plasma dalbavancin concentrations (Cmin, Cmax) by LC-MS/MS; assay type: in vivo, human (patients)
Description: This study involved a retrospective analysis of TDM that was routinely carried out by the ASST Fatebenefratelli Sacco University Hospital (Milan, Italy) from December 2021 to November 2023; the analysis included samples that were collected within our hospital and those received from other hospitals (our laboratory is a reference laboratory for the TDM of dalbavancin in Lombardy Region, Italy). This service also included the on-demand estimation of the next dalbavancin injection. This estimation required the collection of both the Cmin and the Cmax for dalbavancin. […] Plasma blood samples with dalbavancin were assessed by using ethylene diamine tetra-acetic acid (EDTA)-containing Vacutainers®. All samples were centrifuged at 3000× g, and the plasma was separated and stored at −20 °C. Dalbavancin quantification was performed through a validated LC-MS/MS method that was developed and validated according to the EMA guidelines. The analytical process consisted of a fast protein precipitation protocol of 50 µL of plasma with 400 µL of precipitation solution (methanol/acetonitrile 3/1), centrifugation at 10,000× g, 1:3 dilutions with water, and analysis. […] Waters, Milan, Italy). For quantification, analysis was performed in the ESI-positive mode by monitoring the transition (m/z = 909.45 > 340.2) for dalbavancin.

[2] = Log-linear regression models describing the time distribution of dalbavancin concentrations; details: for Days >4 mg/L / Days >8 mg/L: log-linear regression model, pooled patients
Method: Coupled with the Cmin values, these samples facilitated the development of log-linear regression models describing the time distribution of dalbavancin concentrations for each injection. By targeting the Cmin values for dalbavancin that were not lower than 4 or 8 mg/L, we were able to estimate the number of days needed between each injection to guarantee these targets.
We retrospectively analyzed data from adult patients who received at least 3 doses of dalbavancin for the treatment of osteoarticular and/or periprosthetic joint infections for whom TDM was performed as part of clinical practice. On the day of the scheduled injection, the Cmin for dalbavancin within a 1 h time window before the injection was considered for both Cmin- and Cmax-based TDM. Peak drug concentrations (30 to 60 min after the end of the infusion) were collected only in patients subjected to Cmax-based TDM.
Dalbavacin concentrations were considered both as a continuous variable (expressed as the mean ± standard deviation) and categorical variables, and data (expressed as a percentage) were clustered according to their frequency distribution within the therapeutic ranges proposed in the available literature (>4 or >8 mg/L). Inter-individual variability in the dalbavancin concentrations was calculated as the percentage of the coefficient of variation (CV%). Log-linear regressions were performed using the built-in statistical package in Microsoft Excel (Microsoft Office Software, Microsoft Company, Redmond, WA, USA). The goodness of the log-linear regression models developed by plotting logarithmic concentrations (Y) of dalbavancin with time (X) was quantified using the coefficient of correlation (r). Unpaired t-tests were used to compare the Cmin for dalbavancin, the number of drug injections, and the times of injections between Cmin- and Cmax-based TDM. Statistical significance was set at <0.05 (significant difference) and <0.01 (highly significant difference).

[3] = cited from earlier work

## CN[C@H]1C(=O)N[C@@H]2Cc3ccc(cc3)Oc3cc4cc(c3O[C@@H]3O[C@H](C(=O)O)[C@@H](O)[C@H](O)[C@H]3NC(=O)CCCCCCCCC(C)C)Oc3ccc(cc3Cl)[C@@H](O)[C@@H]3NC(=O)[C@H](NC(=O)[C@@H]4NC(=O)[C@@H](NC2=O)c2cc(cc(O)c2Cl)Oc2cc1ccc2O)c1ccc(O)c(c1)-c1c(O[C@H]2O[C@H](CO)[C@@H](O)[C@H](O)[C@@H]2O)cc(O)cc1[C@@H](C(=O)NCCCN(C)C)NC3=O [dalbavancin]
[1]; 107 TDM assessments, plasma, 30 to 60 min after end of infusion, LC-MS/MS, range
  Cmax of dalbavancin, range: 74.9 to 995.6 µg/mL
[1]; Cmax-based TDM, 2nd injection
  Dalbavancin Cmin CV%: 44%
[1]; Cmax-based TDM, 3rd injection
  Dalbavancin Cmin CV%: 46%
[1]; Cmax-based TDM, 4th injection
  Dalbavancin Cmin CV%: 40%
[1]; Cmax-based TDM, 5th injection
  Dalbavancin Cmin CV%: 21%
[1]; Cmax-based TDM, 6th injection
  Dalbavancin Cmin CV%: 32%
[1]; Cmax-based TDM, ≥6 injections
  Dalbavancin Cmin CV%: 32%
[1]; Cmin-based TDM, 2nd injection
  Dalbavancin Cmin CV%: 45%
[1]; Cmin-based TDM, 3rd injection
  Dalbavancin Cmin CV%: 57%
[1]; Cmin-based TDM, 4th injection
  Dalbavancin Cmin CV%: 43%
[1]; Cmin-based TDM, 5th injection
  Dalbavancin Cmin CV%: 56%
[1]; Cmin-based TDM, 6th injection
  Dalbavancin Cmin CV%: 41%
[1]; Cmin-based TDM, ≥6 injections
  Dalbavancin Cmin CV%: 37%
[1]; human, in vivo, iv
  Cmin for dalbavancin, range: 4.1 to 70.5 µg/mL
[1]; human, in vivo, iv, SD
  Cmin for dalbavancin before the second injection: 39.6 ± 35.4 µg/mL
  Cmin for dalbavancin, mean: 20.7 ± 14.0 µg/mL
[1]; human, in vivo, SD
  Cmax: 310 ± 158 µg/mL
[2]; 2nd injection
  Days >4 mg/L: 52 days
  Days >8 mg/L: 42 days
[2]; 3rd injection
  Days >4 mg/L: 52 days
  Days >8 mg/L: 43 days
[2]; 4th injection
  Days >4 mg/L: 59 days
  Days >8 mg/L: 48 days
[2]; 5th injection
  Days >4 mg/L: 56 days
  Days >8 mg/L: 45 days
[2]; 6th injection
  Days >4 mg/L: 53 days
  Days >8 mg/L: 44 days
[2]; >6 injections
  Days >4 mg/L: 52 days
  Days >8 mg/L: 42 days
[2]; Overall
  Days >4 mg/L: 54 days
  Days >8 mg/L: 44 days
[2]; estimated from pooled log-linear regression models, range over injections
  Days between injections needed to maintain Cmin >8 mg/L: 42 to 48 days
[3]; ref [1],[2],[3],[4]
  terminal half-life: > 14 days
[3]; ref [2],[3]
  total volume of distribution: ~16 L

— paper PMC10812767, “Therapeutic Drug Monitoring of Dalbavancin in Real Life: A Two-Year Experience” (Antibiotics, 2023)
